Test results from ChEMBL document CHEMBL5584338, “Design, Synthesis, and Biological Evaluation of 5-Amino-4-fluoro-1H-benzo[d]imidazole-6-carboxamide Derivatives as Novel and Potential MEK/RAF Complex Inhibitors Based on the "Clamp" Strategy” (J Med Chem, 2024).
pIC50: −log10 of the molar value. Calls of active or inactive are those of the source. The calls are words filed in the database; no cut-off is given here.

Columns and labels:
MIA PaCa-2 [1] = assay: Antiproliferative activity against human MIA PaCa-2 cells harboring KRAS G12C mutant incubated for 72 hrs by CCK8 assay; format: functional, cell-based; conditions: MIA PaCa-2, 72 h
HCT-116 [2] = assay: Antiproliferative activity against human HCT-116 cells harboring KRAS G13D mutant incubated for 72 hrs by CCK8 assay; format: functional, cell-based; conditions: HCT-116, 72 h
[3] = target: Dual specificity mitogen-activated protein kinase kinase 1 (Homo sapiens, UniProt Q02750); assay: Inhibition of MEK1 (unknown origin)
Chain of Dual specificity mitogen-activated protein kinase kinase 1 (Q02750 whole entry): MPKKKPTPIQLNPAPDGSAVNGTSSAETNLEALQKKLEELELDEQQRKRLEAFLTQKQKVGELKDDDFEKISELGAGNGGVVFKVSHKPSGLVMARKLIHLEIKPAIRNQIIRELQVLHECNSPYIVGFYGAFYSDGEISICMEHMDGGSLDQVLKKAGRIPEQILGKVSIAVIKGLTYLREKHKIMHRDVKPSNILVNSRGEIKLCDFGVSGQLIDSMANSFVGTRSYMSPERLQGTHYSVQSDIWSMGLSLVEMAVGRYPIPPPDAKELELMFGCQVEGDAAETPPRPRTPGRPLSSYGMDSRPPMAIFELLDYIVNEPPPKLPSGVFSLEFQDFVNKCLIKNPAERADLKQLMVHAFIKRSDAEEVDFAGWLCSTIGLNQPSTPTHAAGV

[4] = target: T1, Serine/threonine-protein kinase B-raf (Homo sapiens, UniProt P15056); assay: Inhibition of BRAF (unknown origin)
T1 sequence (P15056 whole entry): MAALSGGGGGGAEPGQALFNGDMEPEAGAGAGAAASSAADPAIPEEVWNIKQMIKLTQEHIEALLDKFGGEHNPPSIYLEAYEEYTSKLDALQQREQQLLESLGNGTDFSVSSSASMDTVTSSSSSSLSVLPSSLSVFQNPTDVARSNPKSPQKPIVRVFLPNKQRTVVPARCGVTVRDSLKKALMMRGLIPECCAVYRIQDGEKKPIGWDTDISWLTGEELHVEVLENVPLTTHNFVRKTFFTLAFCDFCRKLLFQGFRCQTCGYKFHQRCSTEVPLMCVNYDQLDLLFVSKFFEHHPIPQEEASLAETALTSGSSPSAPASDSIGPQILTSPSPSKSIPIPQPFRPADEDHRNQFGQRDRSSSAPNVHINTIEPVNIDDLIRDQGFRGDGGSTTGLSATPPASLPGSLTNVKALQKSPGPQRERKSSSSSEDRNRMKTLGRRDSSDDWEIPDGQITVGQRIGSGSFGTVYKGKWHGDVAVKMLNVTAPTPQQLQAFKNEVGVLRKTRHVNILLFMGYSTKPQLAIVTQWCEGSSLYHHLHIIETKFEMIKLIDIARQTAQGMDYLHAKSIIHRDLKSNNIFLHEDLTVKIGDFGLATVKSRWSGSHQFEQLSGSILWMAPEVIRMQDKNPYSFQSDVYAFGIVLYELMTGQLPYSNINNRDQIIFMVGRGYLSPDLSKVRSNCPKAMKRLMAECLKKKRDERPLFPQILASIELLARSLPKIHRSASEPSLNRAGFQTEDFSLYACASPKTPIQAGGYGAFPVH

[5] = target: T1, Serine/threonine-protein kinase B-raf; assay: Inhibition of BRAF (unknown origin) assessed as remaining activity at 0.1 uM relative to control
HeLa = assay: Antiproliferative activity against human HeLa cells incubated for 72 hrs by CCK8 assay; format: functional, cell-based
[6] = Antiproliferative activity against rat H9c2 cells incubated for 72 hrs by CCK8 assay; format: toxicity, cell-based
[7] = Stability in human liver microsomes assessed as half life at 200 uM preincubated for 5 mins followed by NADPH addition measured upto 60 mins by LC-MS/MS analysis; format: ADME, Microsome; conditions: time 65 min
[8] = target: Dual specificity mitogen-activated protein kinase kinase; MEK1/2 (Homo sapiens) (UniProt P36507+Q02750); assay: Inhibition of MEK phosphorylation in human MIA PaCa-2 cells upto 1 uM incubated for 4 hrs by Western blot analysis; format: cell-based
Chain of Dual specificity mitogen-activated protein kinase kinase; MEK1/2 (Homo sapiens) (P36507 whole entry, looked up): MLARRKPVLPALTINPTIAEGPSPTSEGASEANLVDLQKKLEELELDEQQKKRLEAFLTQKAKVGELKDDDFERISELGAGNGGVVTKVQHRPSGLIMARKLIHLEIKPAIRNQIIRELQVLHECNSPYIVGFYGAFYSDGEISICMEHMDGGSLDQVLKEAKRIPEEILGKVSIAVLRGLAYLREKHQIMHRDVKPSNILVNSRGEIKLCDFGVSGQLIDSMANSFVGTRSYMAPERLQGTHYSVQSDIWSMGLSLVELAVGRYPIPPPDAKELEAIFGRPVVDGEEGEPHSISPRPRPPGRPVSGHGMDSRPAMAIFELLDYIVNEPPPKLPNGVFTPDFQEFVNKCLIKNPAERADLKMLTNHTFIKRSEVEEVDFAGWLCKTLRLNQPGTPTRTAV
Chain of Dual specificity mitogen-activated protein kinase kinase; MEK1/2 (Homo sapiens) (Q02750 whole entry, looked up): as the sequence (Q02750 whole entry) above

MIA PaCa-2 [9] = assay: Inhibition of MEK1/2/BRAF complex in human MIA PaCa-2 cells at 100 nM incubated for 4 hrs by co-immunoprecipitation method; format: cell-based
MIA PaCa-2 [10] = assay: Stabilization of MEK1/2/BRAF complex in human MIA PaCa-2 cells at 100 nM incubated for 4 hrs by co-immunoprecipitation method; format: cell-based
[11] = target: Dual specificity mitogen-activated protein kinase kinase 2 (Homo sapiens) (UniProt P36507); assay: Binding affinity to MEK2 (unknown origin) at 1 uM by kinase profiling analysis
Chain of Dual specificity mitogen-activated protein kinase kinase 2 (Homo sapiens) (P36507 whole entry): as the sequence (P36507 whole entry, looked up) above

[12] = target: T1, Serine/threonine-protein kinase B-raf; assay: Inhibition of BRAF (unknown origin) at 1 uM by kinase profiling analysis
Homo sapiens = species on record: Homo sapiens; assay: Inhibition of BRAF […] mutant (unknown origin) at 1 uM by kinase profiling analysis
[13] = target: RAF proto-oncogene serine/threonine-protein kinase (Homo sapiens) (UniProt P04049); assay: Binding affinity to CRAF (unknown origin) at 1 uM by kinase profiling analysis
Chain of RAF proto-oncogene serine/threonine-protein kinase (Homo sapiens) (P04049 whole entry): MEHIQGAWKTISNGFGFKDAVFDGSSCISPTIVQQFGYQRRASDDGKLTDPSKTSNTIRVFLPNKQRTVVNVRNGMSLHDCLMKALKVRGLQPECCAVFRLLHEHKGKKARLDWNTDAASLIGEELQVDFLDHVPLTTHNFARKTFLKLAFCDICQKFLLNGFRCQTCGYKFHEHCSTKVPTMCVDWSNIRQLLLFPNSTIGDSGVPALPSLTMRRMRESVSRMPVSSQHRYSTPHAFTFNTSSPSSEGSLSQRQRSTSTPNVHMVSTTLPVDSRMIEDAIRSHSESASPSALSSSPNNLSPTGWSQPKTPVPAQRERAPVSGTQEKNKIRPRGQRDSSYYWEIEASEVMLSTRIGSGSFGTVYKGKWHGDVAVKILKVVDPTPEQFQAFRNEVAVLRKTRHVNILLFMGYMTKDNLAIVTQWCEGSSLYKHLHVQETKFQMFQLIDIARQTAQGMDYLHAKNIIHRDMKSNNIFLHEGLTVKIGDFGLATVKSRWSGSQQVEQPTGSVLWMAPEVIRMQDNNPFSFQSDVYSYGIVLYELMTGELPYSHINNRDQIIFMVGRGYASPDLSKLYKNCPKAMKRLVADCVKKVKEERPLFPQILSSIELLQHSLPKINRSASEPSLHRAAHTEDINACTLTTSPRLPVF

HCT-116 [14] = assay: Inhibition of colony formation in human HCT-116 cells incubated for 10 days by crystal violet staining based analysis; format: functional, cell-based; conditions: dose 0.1-10 µM, time 10.0 day
MIA PaCa-2 [15] = assay: Inhibition of colony formation in human MIA PaCa-2 cells incubated for 10 days by crystal violet staining based analysis; format: functional, cell-based; conditions: dose 0.01-1 µM, time 10.0 day
MIA PaCa-2 [16] = assay: Induction of apoptosis in human MIA PaCa-2 cells assessed as increase in cleaved caspase-3 level upto 1 uM incubated for 24 hrs by Western blot analysis; format: functional, cell-based
HUVEC = assay: Inhibition of cell migration in human HUVEC cells at 0.01 to 1 uM incubated for 24 hrs by wound healing assay; format: functional, cell-based; conditions: dose 0.01-1 µM
MIA PaCa-2 [17] = assay: Induction of apoptosis in human MIA PaCa-2 cells assessed as increase in cleaved PARP-1 level upto 1 uM incubated for 24 hrs by Western blot analysis; format: functional, cell-based
MIA PaCa-2 [18] = assay: Induction of apoptosis in human MIA PaCa-2 cells assessed as early apoptotic cells at 5 uM incubated for 24 hrs by Annexin V-FITC/PI staining based flow cytometry (reference value: 5.02 %); format: functional
MIA PaCa-2 [19] = assay: Induction of apoptosis in human MIA PaCa-2 cells assessed as late apoptotic cells at 0.05 uM incubated for 24 hrs by Annexin V-FITC/PI staining based flow cytometry (reference value: 6.90 %); format: functional
MIA PaCa-2 [20] = assay: Induction of apoptosis in human MIA PaCa-2 cells assessed as late apoptotic cells at 0.25 uM incubated for 24 hrs by Annexin V-FITC/PI staining based flow cytometry (reference value: 6.90 %); format: functional
MIA PaCa-2 [21] = assay: Induction of apoptosis in human MIA PaCa-2 cells assessed as late apoptotic cells at 1 uM incubated for 24 hrs by Annexin V-FITC/PI staining based flow cytometry (reference value: 6.90 %); format: functional
MIA PaCa-2 [22] = assay: Induction of apoptosis in human MIA PaCa-2 cells assessed as late apoptotic cells at 5 uM incubated for 24 hrs by Annexin V-FITC/PI staining based flow cytometry (reference value: 6.90 %); format: functional
MIA PaCa-2 [23] = assay: Induction of cell cycle arrest at G0/G1 phase in human MIA PaCa-2 cells at 0.01 to 0.25 uM incubated for 24 hrs by PI/RNase staining based flow cytometry (reference value: 47.37 %); format: functional; conditions: dose 0.01-0.25 µM
HCT-116 [24] = assay: Induction of cell cycle arrest at G0/G1 phase in human HCT-116 cells at 0.1 to 2.5 uM incubated for 24 hrs by PI/RNase staining based flow cytometry (reference value: 61.35 %); format: functional; conditions: dose 0.1-2.5 µM
[25] = Cmax in Sprague-Dawley rat at 5 mg/kg, iv; format: ADME, organism-based; conditions: in vivo
C-26 = assay: Antitumor activity against mouse C26 cells harboring KRAS G12D mutant xenografted in BALB/c mouse assessed as tumor growth inhibition administered intravenously 5 times a week for 12 days; format: functional, cell-based; conditions: dose 5-30 mg/kg, route iv, time 12.0 day
HCT-116 [26] = assay: Antitumor activity against human HCT-116 cells harboring KRAS G13D mutant xenografted in NU/NU mouse assessed as tumor growth inhibition administered intravenously 5 times a week for 16 days; format: functional, cell-based; conditions: dose 15-30 mg/kg, route iv, time 16.0 day
HCT-116 [27] = assay: Antitumor activity against human HCT-116 cells harboring KRAS G13D mutant xenografted in NU/NU mouse at 30 mg/kg, iv administered 5 times a week for 16 days relative to control; format: functional; conditions: HCT-116, 384 h, time 16 day, read-out: TGI
[28] = Toxicity in BALB/c mouse xenografted with […] harboring KRAS G12D mutant assessed as animal death at 5 to 30 mg/kg, iv administered 5 times a week for 12 days; format: organism-based, C-26; conditions: in vivo, 288 h, dose 5-30 mg/kg, time 12 day
[29] = Toxicity in BALB/c mouse xenografted with […] harboring KRAS G12D mutant assessed as body weight change at 5 to 30 mg/kg, iv administered 5 times a week for 12 days; format: organism-based, C-26; conditions: in vivo, 288 h, dose 5-30 mg/kg, time 12 day
[30] = tested on: Mitogen-activated protein kinase 1/3 (ERK1/2) (Homo sapiens); assay: Inhibition of ERK phosphorylation in human MIA PaCa-2 cells upto 1 uM incubated for 4 hrs by Western blot analysis
[31] = tested on: Mitogen-activated protein kinase 1/3 (ERK1/2) (Homo sapiens); assay: Inhibition of ERK phosphorylation in human MIA PaCa-2 cells at lower concentration incubated for at least 48 hrs by Western blot analysis

SMILES: CCNS(=O)(=O)Nc1cccc(Cn2cnc3c(F)c(Nc4ccc(C5CC5)cc4F)c(C(=O)NOCCO)cc32)c1F
- pIC50 (MIA PaCa-2 [1]): 7.96
- pIC50 (HCT-116 [2]): 7.10
- pIC50 [3]: 7.55
- pIC50 [4]: 8.52
- Activity [5]: -3%
- pIC50 (HeLa): < 5.00
- IC50 at 72 h [6]: > 50000 nM
- half-life at 200 µM [7]: 58.7 min
- inhibition [8]: Active
- inhibition (MIA PaCa-2 [9]): Active
- Activity (MIA PaCa-2 [10]): Active
- Activity [11]: Active
- inhibition [12]: Active
- inhibition (Homo sapiens): Active
- Activity [13]: Active
- inhibition (HCT-116 [14]): Dose-Dependent Effect
- inhibition (MIA PaCa-2 [15]): Dose-Dependent Effect
- Activity (MIA PaCa-2 [16]): Active
- inhibition (HUVEC): Active
- Activity (MIA PaCa-2 [17]): Active
- Activity (MIA PaCa-2 [18]): 42.1%
- Activity (MIA PaCa-2 [19]): 6.59%
- Activity (MIA PaCa-2 [20]): 7.36%
- Activity (MIA PaCa-2 [21]): 8.21%
- Activity (MIA PaCa-2 [22]): 9.09%
- Activity (MIA PaCa-2 [23]): 87.94%
- Activity (HCT-116 [24]): 79.63%
- Cmax [25]: 603 ng/mL
- inhibition (C-26): Active
- inhibition (HCT-116 [26]): Active
- inhibition in vivo at 30 mg/kg (HCT-116 [27]): 93%
- Activity [28]: Non-Toxic
- Activity [29]: Non-Toxic
- inhibition [30]: Active
- inhibition [31]: Active
